IC50 data for 12 molecules are collected here from patent US20260193271A1, “PAN-KRAS INHIBITOR COMPOUND” (ADLAI NORTYE BIOPHARMA CO., LTD., priority 2022, published 2026).

Molecules are shown by their SMILES.

What is called IC50 is the point on the concentration scale where inhibition reaches its midpoint.

Assay [1] concerns AsPC-1 (G12D). Put plainly: In vitro cell proliferation inhibition test (CellTiter-Glo), AsPC-1. The format is cell-based. Conditions: Homo sapiens, ASPC1, AsPC-1 pancreas cell line, KRAS (p.G12D), 72 h co-incubation. In outline:
(§1)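 Cells were seeded at 1000-5000/well by doubling time and cultured overnight at 37 °C, 5% CO2. They were then exposed for 72 h to 10-point, 3-fold compound dilutions (final top 10 μM), and viability was read by CellTiter-Glo luminescence. IC50 came from normalized signals fitted by four-parameter regression.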
On the technique in general: Cellular ATP, detected with luciferase, serves as a proxy for viable cell number.

The test system of assay [2] is SW480 (G12V). The experiment in a line: In vitro cell proliferation inhibition test (CellTiter-Glo), SW480. Conditions: Homo sapiens, SW480 colon cell line, KRAS (p.G12V), 72 h co-incubation. Format: cell-based. The method in brief:
as §1

For the molecule `CCn1c(-c2cc(-c3cnc4c(c3)CN(C)C4)cnc2[C@H](C)OC)c2c3cc(ccc31)-c1csc(n1)C[C@H](NC(=O)[C@H]1C[C@@H]1C)C(=O)N1CCC[C@H](N1)C(=O)OCC(C)(C)C2` (atropisomer, axis not shown) [Compound 45, (1S,2S)-N-((6^3S,4S,Z)-1^1-ethyl-1^2-(2-((S)-1-methoxyethyl)-5-(6-methyl-6,7-dihydro-5H-pyrrolo[3,4-b]pyridin-3-yl)pyridin-3-yl)-10,10-dimethyl-5,7-dioxo-6^1,6^2,6^3,6^4,6^5,6^6-hexahydro-1^1H-8-oxa-2(4,2)-thiazola-1(5,3)-indola-6(1,3)-pyridazinacycloundecaphane-4-yl)-2-methylcyclopropane-1-carboxamide], the IC50 was 5.3 nM in assay [1] and 6.2 nM in assay [2].

On to `CCn1c(-c2cc(-c3ccc(CN4CC[C@@H](F)C4)cn3)cnc2[C@H](C)OC)c2c3cc(ccc31)-c1csc(n1)C[C@H](NC(=O)[C@H]1C[C@@H]1C)C(=O)N1CCC[C@H](N1)C(=O)OCC(C)(C)C2` (atropisomer, axis not shown) [Compound 46, (1S,2S)-N-((6^3S,4S,Z)-1^1-ethyl-1^2-(5-(((R)-3-fluoropyrrolidin-1-yl)methyl)-6′-((S)-1-methoxyethyl)-[2,3′-bipyridin]-5′-yl)-10,10-dimethyl-5,7-dioxo-6^1,6^2,6^3,6^4,6^5,6^6-hexahydro-1^1H-8-oxa-2(4,2)-thiazola-1(5,3)-indola-6(1,3)-pyridazinacycloundecaphane-4-yl)-2-methylcyclopropane-1-carboxamide], for which the IC50 was 6.1 nM in assay [1] and 4.1 nM in assay [2].

Turning to `CCn1c(-c2cc(-c3ccc(CN4CC[C@@H](O)C4)cn3)cnc2[C@H](C)OC)c2c3cc(ccc31)-c1csc(n1)C[C@H](NC(=O)[C@H]1C[C@@H]1C)C(=O)N1CCC[C@H](N1)C(=O)OCC(C)(C)C2` (atropisomer, axis not shown) [Compound 47, (1S,2S)-N-((6^3S,4S,Z)-1^1-ethyl-1^2-(5-(((R)-3-hydroxypyrrolidin-1-yl)methyl)-6′-((S)-1-methoxyethyl)-[2,3′-bipyridin]-5′-yl)-10,10-dimethyl-5,7-dioxo-6^1,6^2,6^3,6^4,6^5,6^6-hexahydro-1^1H-8-oxa-2(4,2)-thiazola-1(5,3)-indola-6(1,3)-pyridazinacycloundecaphane-4-yl)-2-methylcyclopropane-1-carboxamide], the values for the concentration for half-maximal inhibition (IC50) in assay [1] and in assay [2] were 2.9 nM and 6.1 nM, respectively.

Take `CCn1c(-c2cc(-c3ncc(CN4CCS(=N)(=O)CC4)cn3)cnc2[C@H](C)OC)c2c3cc(ccc31)-c1csc(n1)C[C@H](NC(=O)[C@H]1C[C@@H]1C)C(=O)N1CCC[C@H](N1)C(=O)OCC(C)(C)C2` (atropisomer, axis not shown) [Compound 49, (1S,2S)-N-((6^3S,4S,Z)-1^1-ethyl-1^2-(5-(5-((1-imino-1-oxido-1λ^6-thiomorpholino)methyl)pyrimidin-2-yl)-2-((S)-1-methoxyethyl)pyridin-3-yl)-10,10-dimethyl-5,7-dioxo-6^1,6^2,6^3,6^4,6^5,6^6-hexahydro-1^1H-8-oxa-2(4,2)-thiazola-1(5,3)-indola-6(1,3)-pyridazinacycloundecaphane-4-yl)-2-methylcyclopropane-1-carboxamide]: the figures for the IC50 in assay [1] and in assay [2] were 1 nM and 4.3 nM, respectively.

In the case of `CCn1c(-c2cc(-c3ccc(CN4CC[C@@H](S(C)(=O)=O)C4)cn3)cnc2[C@H](C)OC)c2c3cc(ccc31)-c1csc(n1)C[C@H](NC(=O)[C@H]1C[C@@H]1C)C(=O)N1CCC[C@H](N1)C(=O)OCC(C)(C)C2` (atropisomer, axis not shown) [Compound 50, (1S,2S)-N-((6^3S,4S,Z)-1^1-ethyl-1^2-(6′-((S)-1-methoxyethyl)-5-(((R)-3-(methylsulfonyl)pyrrolidin-1-yl)methyl)-[2,3′-bipyridin]-5′-yl)-10,10-dimethyl-5,7-dioxo-6^1,6^2,6^3,6^4,6^5,6^6-hexahydro-1^1H-8-oxa-2(4,2)-thiazola-1(5,3)-indola-6(1,3)-pyridazinacycloundecaphane-4-yl)-2-methylcyclopropane-1-carboxamide], the half-inhibitory concentration (IC50) in assay [1] was 8.5 nM; in assay [2], 7.8 nM.

In the case of `CCn1c(-c2cc(-c3ncc(CN4CCS(=O)(=O)CC4)cn3)cnc2[C@H](C)OC)c2c3cc(ccc31)-c1csc(n1)C[C@H](NC(=O)[C@H]1C[C@@H]1C)C(=O)N1CCC[C@H](N1)C(=O)OCC(C)(C)C2` (atropisomer, axis not shown) [Compound 51, (1S,2S)-N-((6^3S,4S,Z)-1^2-(5-(5-((1,1-dioxidothiomorpholino)methyl)pyrimidin-2-yl)-2-((S)-1-methoxyethyl)pyridin-3-yl)-1^1-ethyl-10,10-dimethyl-5,7-dioxo-6^1,6^2,6^3,6^4,6^5,6^6-hexahydro-1^1H-8-oxa-2(4,2)-thiazola-1(5,3)-indola-6(1,3)-pyridazinacycloundecaphane-4-yl)-2-methylcyclopropane-1-carboxamide], the half-maximal inhibitory concentration (IC50) was 0.9 nM in assay [1] and 1.2 nM in assay [2].

In the case of `CCn1c(-c2cc(-c3cc4c(n(C)c3=O)CCN(C)C4)cnc2[C@H](C)OC)c2c3cc(ccc31)-c1csc(n1)C[C@H](NC(=O)[C@H]1C[C@@H]1C)C(=O)N1CCC[C@H](N1)C(=O)OCC(C)(C)C2` (atropisomer, axis not shown) [Compound 52, (1S,2S)-N-((6^3S,4S,Z)-1^2-(5-(1,6-dimethyl-2-oxo-1,2,5,6,7,8-hexahydro-1,6-naphthyridin-3-yl)-2-((S)-1-methoxyethyl)pyridin-3-yl)-1^1-ethyl-10,10-dimethyl-5,7-dioxo-6^1,6^2,6^3,6^4,6^5,6^6-hexahydro-1^1H-8-oxa-2(4,2)-thiazola-1(5,3)-indola-6(1,3)-pyridazinacycloundecaphane-4-yl)-2-methylcyclopropane-1-carboxamide], the IC50 in assay [1] stood at 0.21 nM; in assay [2] it was 1.2 nM.

With `CCn1c(-c2cc(-c3cnc(CN4CCN(C)CC4)nc3)cnc2[C@H](C)OC)c2c3cc(ccc31)-c1csc(n1)C[C@H](NC(=O)[C@H]1C[C@@H]1C)C(=O)N1CCC[C@H](N1)C(=O)OCC(C)(C)C2` (atropisomer, axis not shown) [Compound 53, (1S,2S)-N-((6^3S,4S,Z)-1^1-ethyl-1^2-(2-((S)-1-methoxyethyl)-5-(2-((4-methylpiperazin-1-yl)methyl)pyrimidin-5-yl)pyridin-3-yl)-10,10-dimethyl-5,7-dioxo-6^1,6^2,6^3,6^4,6^5,6^6-hexahydro-1^1H-8-oxa-2(4,2)-thiazola-1(5,3)-indola-6(1,3)-pyridazinacycloundecaphane-4-yl)-2-methylcyclopropane-1-carboxamide], the IC50 is 4.3 nM in assay [1] and 1.7 nM in assay [2].

Take `CCn1c(-c2cc(-c3cnc(N4CCN(C)CC4)nc3)cnc2[C@H](C)OC)c2c3cc(ccc31)-c1csc(n1)C[C@H](NC(=O)[C@H]1C[C@@H]1C)C(=O)N1CCC[C@H](N1)C(=O)OCC(C)(C)C2` (atropisomer, axis not shown) [Compound 54, (1S,2S)-N-((6^3S,4S,Z)-1^1-ethyl-1^2-(2-((S)-1-methoxyethyl)-5-(2-(4-methylpiperazin-1-yl)pyrimidin-5-yl)pyridin-3-yl)-10,10-dimethyl-5,7-dioxo-6^1,6^2,6^3,6^4,6^5,6^6-hexahydro-1^1H-8-oxa-2(4,2)-thiazola-1(5,3)-indola-6(1,3)-pyridazinacycloundecaphane-4-yl)-2-methylcyclopropane-1-carboxamide]: the IC50 was 2.2 nM in assay [1] and 5.7 nM in assay [2].

For the molecule `CCn1c(-c2cc(-c3cnc(CN4CCCCC4)nc3)cnc2[C@H](C)OC)c2c3cc(ccc31)-c1csc(n1)C[C@H](NC(=O)[C@H]1C[C@@H]1C)C(=O)N1CCC[C@H](N1)C(=O)OCC(C)(C)C2` (atropisomer, axis not shown) [Compound 55, (1S,2S)-N-((6^3S,4S,Z)-1^1-ethyl-1^2-(2-((S)-1-methoxyethyl)-5-(2-(piperidin-1-ylmethyl)pyrimidin-5-yl)pyridin-3-yl)-10,10-dimethyl-5,7-dioxo-6^1,6^2,6^3,6^4,6^5,6^6-hexahydro-1^1H-8-oxa-2(4,2)-thiazola-1(5,3)-indola-6(1,3)-pyridazinacycloundecaphane-4-yl)-2-methylcyclopropane-1-carboxamide], the values for the IC50 in assay [1] and in assay [2] were 6.8 nM and 15 nM, respectively.

In the case of `CCn1c(-c2cc(-c3cnc(N4CCOCC4)nc3)cnc2[C@H](C)OC)c2c3cc(ccc31)-c1csc(n1)C[C@H](NC(=O)[C@H]1C[C@@H]1C)C(=O)N1CCC[C@H](N1)C(=O)OCC(C)(C)C2` (atropisomer, axis not shown) [Compound 56, (1S,2S)-N-((6^3S,4S,Z)-1^1-ethyl-1^2-(2-((S)-1-methoxyethyl)-5-(2-morpholinopyrimidin-5-yl)pyridin-3-yl)-10,10-dimethyl-5,7-dioxo-6^1,6^2,6^3,6^4,6^5,6^6-hexahydro-1^1H-8-oxa-2(4,2)-thiazola-1(5,3)-indola-6(1,3)-pyridazinacycloundecaphane-4-yl)-2-methylcyclopropane-1-carboxamide], the figures for the half-inhibitory concentration (IC50) in assay [1] and in assay [2] were 16 nM and 21 nM, respectively.

For the molecule `CCn1c(-c2cc(-c3cnc(OC)nc3)cnc2[C@H](C)OC)c2c3cc(ccc31)-c1csc(n1)C[C@H](NC(=O)[C@H]1C[C@@H]1C)C(=O)N1CCC[C@H](N1)C(=O)OCC(C)(C)C2` (atropisomer, axis not shown) [Compound 57, (1S,2S)-N-((6^3S,4S,Z)-1^1-ethyl-1^2-(2-((S)-1-methoxyethyl)-5-(2-methoxypyrimidin-5-yl)pyridin-3-yl)-10,10-dimethyl-5,7-dioxo-6^1,6^2,6^3,6^4,6^5,6^6-hexahydro-1H-8-oxa-2(4,2)-thiazola-1(5,3)-indola-6(1,3)-pyridazinacycloundecaphane-4-yl)-2-methylcyclopropane-1-carboxamide], the results for the half-maximal inhibitory concentration (IC50) in assay [1] and in assay [2] were 5.6 nM and 4.6 nM, respectively.
